This is an account of results in US10899759B2, “Positive allosteric modulators of the muscarinic acetylcholine receptor M1” (Vanderbilt University, priority 2016, dated 2021).

The experiment addresses T1, human mAChR M1 (Homo sapiens, UniProt P11229).
T1 construct: host or cells: CHO-K1
T1 sequence (P11229 1-460): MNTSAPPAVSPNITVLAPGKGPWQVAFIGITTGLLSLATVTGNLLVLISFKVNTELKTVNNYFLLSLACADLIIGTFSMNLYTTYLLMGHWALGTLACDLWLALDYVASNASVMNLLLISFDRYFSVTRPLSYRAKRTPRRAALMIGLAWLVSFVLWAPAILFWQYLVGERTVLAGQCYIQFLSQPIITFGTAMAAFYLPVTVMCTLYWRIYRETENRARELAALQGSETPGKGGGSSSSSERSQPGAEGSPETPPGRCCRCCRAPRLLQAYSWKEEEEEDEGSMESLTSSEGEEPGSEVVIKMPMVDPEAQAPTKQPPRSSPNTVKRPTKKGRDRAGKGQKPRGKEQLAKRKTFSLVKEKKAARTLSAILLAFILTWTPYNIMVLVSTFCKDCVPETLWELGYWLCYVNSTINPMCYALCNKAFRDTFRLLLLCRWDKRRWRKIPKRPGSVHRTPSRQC
Nature of the experiment: mAChR M1 cell-based functional assay (calcium mobilization, Fluo-4, FDSS). Particulars: CHO-K1 cells stably expressing hM1; for Emax: EC20 acetylcholine response, read-out: Human M1 Emax; for EC50: positive allosteric modulator activity as increase in the EC20 acetylcholine response. As to the method: Chinese hamster ovary (CHO-K1) cells stably expressing rat (r)M1 were purchased from the American Type Culture Collection and cultured according to their indicated protocol. […] To make stable rM2, hM2, rM3, hM4, and rM4 cell lines for use in calcium mobilization assays, these cells also were stably transfected with a chimeric G-protein (Gqi5) (provided by B. R. Conklin, University of California, San Francisco) using Lipofectamine 2000. rM1, hM1, rM3, hM3, rM5, and hM5 cells were grown in Ham's F-12 medium containing 10% heat-inactivated fetal bovine serum (FBS), 20 mM HEPES, and 50 μg/mL G418 sulfate. rM2-Gqi5, hM2-Gqi5, and hM4-Gqi5 cells were grown in the same medium also containing 500 μg/mL Hygromycin B. Stable rM4-Gqi5 cells were grown in DMEM containing 10% heat-inactivated FBS, 20 mM HEPES, 400 μg/mL G418 sulfate, and 500 μg/mL Hygromycin B.
For high throughput measurement of agonist-evoked increases in intracellular calcium, CHO-K1 cells stably expressing muscarinic receptors were plated in growth medium lacking G418 and hygromycin at 15,000 cells/20 μL/well in Greiner 384-well black-walled, tissue culture (TC)-treated, clear-bottom plates (VWR). Cells were incubated overnight at 37° C. and 5% CO2. […] Compound master plates were formatted in an 11 point CRC format (1:3 dilutions) in 100% DMSO with a starting concentration of 10 mM using the BRAVO liquid handler (Agilent). Test compound CRCs were then transferred to daughter plates (240 nL) using the Echo acoustic plate reformatter (Labcyte, Sunnyvale, Calif.) and then diluted into assay buffer (40 μL) to a 2× stock using a Thermo Fisher Combi (Thermo Fisher Scientific, Waltham, Mass.).
Calcium flux was measured using the Functional Drug Screening System (FDSS) 6000 (Hamamatsu Corporation, Tokyo, Japan) as an increase in the fluorescent static ratio. Compounds were applied to cells (20 μL, 2×) using the automated system of the FDSS 6000 at 4 s into the 300 s protocol and the data were collected at 1 Hz. […] Agonist activity was analyzed as a concentration-dependent increase in calcium mobilization upon compound addition. Positive allosteric modulator activity was analyzed as a concentration-dependent increase in the EC20 acetylcholine response. Antagonist activity was analyzed as a concentration-dependent decrease in the EC80 acetylcholine response. Concentration-response curves were generated using a four-parameter logistical equation in XLfit curve fitting software (IDBS, Bridgewater, N.J.) for Excel (Microsoft, Redmond, Wash.) or Prism (GraphPad Software, Inc., San Diego, Calif.).
The compound numbers correspond to the compound numbers used in Table 1.
(In general: Calcium assays in cells follow changes in intracellular calcium, usually with a dye or a luminescent sensor.)

As for `Cn1ccc2c(Cc3ccc(-c4cscn4)cc3)cc(C(=O)N[C@H]3CCCC[C@@H]3O)nc21` [Compound 22, N-[(1S,2S)-2-hydroxycyclohexyl]-1-methyl-4-[(4-thiazol-4-ylphenyl)methyl]pyrrolo[2,3-b]pyridine-6-carboxamide], the Emax was 63.3% and the EC50 was 40 nM.
For `Cn1ccc2c(Cc3ccc(-c4cscn4)cc3)cc(C(=O)NC3CC4(COC4)C3)nc21` [Compound 23, 1-methyl-N-(2-oxaspiro[3.3]heptan-6-yl)-4-[(4-thiazol-4-ylphenyl)methyl]pyrrolo[2,3-b]pyridine-6-carboxamide] the same measures were 75.4% and 140 nM.
For `CC1CC(NC(=O)c2cc(Cc3ccc(-c4cscn4)cc3)c3ccn(C)c3n2)CC(C)O1` (stereo not drawn) [Compound 24, N-(2,6-dimethyltetrahydropyran-4-yl)-1-methyl-4-[(4-thiazol-4-ylphenyl)methyl]pyrrolo[2,3-b]pyridine-6-carboxamide] the same measures were 65.3% and 1110 nM.
Consider `Cn1ccc2c(Cc3ccc(-c4cscn4)cc3)cc(C(=O)NC3CCOC(C)(C)C3)nc21` (stereo not drawn) [Compound 25, N-(2,2-dimethyltetrahydropyran-4-yl)-1-methyl-4-[(4-thiazol-4-ylphenyl)methyl]pyrrolo[2,3-b]pyridine-6-carboxamide], for which the maximal response (Emax) was determined as 76.7% and the half-maximal effective concentration (EC50) worked out at 670 nM.
On to `Cn1ccc2c(Cc3ccc(-c4cscn4)cc3)cc(C(=O)NCC3CCOCC3)nc21` [Compound 26, 1-methyl-N-(tetrahydropyran-4-ylmethyl)-4-[(4-thiazol-4-ylphenyl)methyl]pyrrolo[2,3-b]pyridine-6-carboxamide], for which the Emax came out at 52.6% and the EC50 is 410 nM.
`Cn1ncc2c(Cc3ccc(-c4cscn4)cc3)cc(C(=O)N[C@H]3CCOC[C@@H]3O)nc21` [Compound 27, N-[(3R,4S)-3-hydroxytetrahydropyran-4-yl]-1-methyl-4-[(4-thiazol-4-ylphenyl)methyl]pyrazolo[3,4-b]pyridine-6-carboxamide]: the Emax was determined as 75.1% and the EC50 came to 70 nM.
Consider `Cn1ncc2c(Cc3ccc(-c4cscn4)cc3)cc(C(=O)N[C@H]3CCCC[C@@H]3O)nc21` [Compound 28, N-[(1S,2S)-2-hydroxycyclohexyl]-1-methyl-4-[(4-thiazol-4-ylphenyl)methyl]pyrazolo[3,4-b]pyridine-6-carboxamide], for which the Emax was 76.4% and the EC50 was determined as 130 nM.
The corresponding values for `Cn1ncc2c(Cc3ccc(-c4cscn4)cc3)cc(C(=O)NCC3CCOCC3)nc21` [Compound 29, 1-methyl-N-(tetrahydropyran-4-ylmethyl)-4-[(4-thiazol-4-ylphenyl)methyl]pyrazolo[3,4-b]pyridine-6-carboxamide] are 48.1% and 1610 nM.
The corresponding values for `Cn1ncc2c(Cc3ccc(-c4cscn4)cc3)cc(C(=O)NC3CC4(COC4)C3)nc21` [Compound 30, 1-methyl-N-(2-oxaspiro[3.3]heptan-6-yl)-4-[(4-thiazol-4-ylphenyl)methyl]pyrazolo[3,4-b]pyridine-6-carboxamide] are 77.8% and 660 nM.
The corresponding values for `Cn1ncc2c(Cc3ccc(-c4cscn4)cc3)cc(C(=O)N[C@H]3CC[C@@H]3O)nc21` [Compound 31, N-[(1S,2S)-2-hydroxycyclobutyl]-1-methyl-4-[(4-thiazol-4-ylphenyl)methyl]pyrazolo[3,4-b]pyridine-6-carboxamide] are 79.7% and 3830 nM.
For the molecule `Cn1ccc2c(Cc3ccc(-c4cscn4)cc3)cc(C(=O)N[C@@H]3CCCOC3)nc21` [Compound 32, 1-methyl-N-[(3R)-tetrahydropyran-3-yl]-4-[(4-thiazol-4-ylphenyl)methyl]pyrrolo[2,3-b]pyridine-6-carboxamide], the Emax stood at 39.7% and the EC50 was 380 nM.
For `Cn1ccc2c(Cc3ccc(-c4cscn4)cc3)cc(C(=O)N[C@H]3CCOC3)nc21` [Compound 33, 1-methyl-N-[(3S)-tetrahydrofuran-3-yl]-4-[(4-thiazol-4-ylphenyl)methyl]pyrrolo[2,3-b]pyridine-6-carboxamide] the same measures were 50.6% and 2910 nM.
For the molecule `Cn1ccc2c(Cc3ccc(-c4cscn4)cc3)cc(C(=O)N[C@@H]3CCOC3)nc21` [Compound 34, 1-methyl-N-[(3R)-tetrahydrofuran-3-yl]-4-[(4-thiazol-4-ylphenyl)methyl]pyrrolo[2,3-b]pyridine-6-carboxamide], the Emax is 54.8% and the EC50 is 2190 nM.
With `Cn1ccc2c(Cc3ccc(-c4cscn4)cc3)cc(C(=O)NC3COC3)nc21` [Compound 35, 1-methyl-N-(oxetan-3-yl)-4-[(4-thiazol-4-ylphenyl)methyl]pyrrolo[2,3-b]pyridine-6-carboxamide], the Emax worked out at 40.2% and the EC50 came to 1230 nM.
Consider `Cn1ccc2c(Cc3ccc(-c4cscn4)cc3)cc(C(=O)NC3CN(C4COC4)C3)nc21` [Compound 36, 1-methyl-N-[1-(oxetan-3-yl)azetidin-3-yl]-4-[(4-thiazol-4-ylphenyl)methyl]pyrrolo[2,3-b]pyridine-6-carboxamide], for which the Emax came out at 66% and the EC50 was 3120 nM.
`Cn1ccc(-c2ccc(Cc3cc(C(=O)N[C@H]4CCOC[C@@H]4O)nc4c3ccn4C)cc2)n1` [Compound 37, N-[(3R,4S)-3-hydroxytetrahydropyran-4-yl]-1-methyl-4-[[4-(1-methylpyrazol-3-yl)phenyl]methyl]pyrrolo[2,3-b]pyridine-6-carboxamide]: the Emax is 76.7% and the EC50 came to 60 nM.
Take `Cn1ccc(-c2ccc(Cc3cc(C(=O)N[C@H]4CCCC[C@@H]4O)nc4c3ccn4C)cc2)n1` [Compound 38, N-[(1S,2S)-2-hydroxycyclohexyl]-1-methyl-4-[[4-(1-methylpyrazol-3-yl)phenyl]methyl]pyrrolo[2,3-b]pyridine-6-carboxamide]: the Emax was 78.6% and the EC50 was 130 nM.
In the case of `Cn1ccc(-c2ccc(Cc3cc(C(=O)NC4CCOCC4)nc4c3ccn4C)cc2)n1` [Compound 39, 1-methy1-4-[[4-(1-methylpyrazol-3-yl)phenyl]methyl]-N-tetrahydropyran-4-yl-pyrrolo[2,3-b]pyridine-6-carboxamide], the Emax stood at 81.2% and the EC50 stood at 750 nM.
Turning to `Cn1ccc(-c2ccc(Cc3cc(C(=O)NC4CC5(COC5)C4)nc4c3ccn4C)cc2)n1` [Compound 40, 1-methyl-4-[[4-(1-methylpyrazol-3-yl)phenyl]methyl]-N-(2-oxaspiro[3.3]heptan-6-yl)pyrrolo[2,3-b]pyridine-6-carboxamide], the Emax was found to be 74% and the EC50 was determined as 750 nM.
Consider `Cn1ccc(-c2ccc(Cc3cc(C(=O)N[C@@H]4CC[C@H]4O)nc4c3ccn4C)cc2)n1` [Compound 41, N-[(1R,2R)-2-hydroxycyclobutyl]-1-methy1-4-[[4-(1-methylpyrazol-3-yl)phenyl]methyl]pyrrolo[2,3-b]pyridine-6-carboxamide], for which the Emax was 78% and the EC50 was 1050 nM.
For `Cn1ccc(-c2ccc(Cc3cc(C(=O)N[C@@H]4CCC[C@H]4O)nc4c3ccn4C)cc2)n1` [Compound 42, N-[(1R,2R)-2-hydroxycyclopentyl]-1-methy1-4-[[4-(1-methylpyrazol-3-yl)phenyl]methyl]pyrrolo[2,3-b]pyridine-6-carboxamide], the Emax came to 74.3% and the EC50 is 370 nM.

For orientation: Emax means the size of the effect at its maximum, as opposed to the concentration needed. For orientation: EC50 means the midpoint of the concentration-response curve.
